Measurements from paper PMC4733049, “Characterization of Rv0888, a Novel Extracellular Nuclease from Mycobacterium tuberculosis” (Scientific Reports, 2016).

Biological target: T1, Rv0888 (Mycobacterium tuberculosis, UniProt P9WKQ1)
T1 construct: gene spmT
Assay: DNase inhibition, circular plasmid DNA, agarose gel and A260 spectrophotometry
Type: biochemical
Conditions: pH 6.5, 5 mM CaCl2, 5 mM MnCl2, 41 °C, 1 h

T1 sequence (P9WKQ1 32-490 limits assumed): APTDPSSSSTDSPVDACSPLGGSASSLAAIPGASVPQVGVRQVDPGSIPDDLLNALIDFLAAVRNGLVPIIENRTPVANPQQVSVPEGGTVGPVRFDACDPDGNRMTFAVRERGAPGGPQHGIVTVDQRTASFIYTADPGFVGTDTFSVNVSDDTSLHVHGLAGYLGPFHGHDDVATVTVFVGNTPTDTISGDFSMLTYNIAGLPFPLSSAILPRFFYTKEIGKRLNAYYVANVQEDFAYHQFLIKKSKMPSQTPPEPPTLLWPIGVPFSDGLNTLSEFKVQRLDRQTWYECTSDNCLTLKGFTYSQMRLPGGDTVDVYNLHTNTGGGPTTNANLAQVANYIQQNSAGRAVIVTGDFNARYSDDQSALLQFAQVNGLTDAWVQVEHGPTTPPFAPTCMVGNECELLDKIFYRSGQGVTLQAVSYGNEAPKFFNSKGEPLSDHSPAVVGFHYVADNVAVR

| Structure (SMILES) | relative DNase activity at 0.5, 1, 2 mM |
| --- | --- |
| CC(C)=CCc1c(O)ccc(C(=O)/C=C/c2ccc(O)cc2)c1O [Corylifolinin] | inhibited by four Chinese medicine monomers (Oleuropein, 6-Gingerol, Corylifolinin and Acteoside) |
| C[C@@H]1O[C@@H](O[C@@H]2[C@@H](O)[C@H](OCCc3ccc(O)c(O)c3)O[C@H](CO)[C@H]2OC(=O)/C=C/c2ccc(O)c(O)c2)[C@H](O)[C@H](O)[C@H]1O [Acteoside] | inhibited by four Chinese medicine monomers (Oleuropein, 6-Gingerol, Corylifolinin and Acteoside) |
| C/C=C1/[C@H](O[C@@H]2O[C@H](CO)[C@@H](O)[C@H](O)[C@H]2O)OC=C(C(=O)OC)[C@H]1CC(=O)OCCc1ccc(O)c(O)c1 [Oleuropein] | inhibited by four Chinese medicine monomers (Oleuropein, 6-Gingerol, Corylifolinin and Acteoside) |
| CCCCC[C@H](O)CC(=O)CCc1ccc(O)c(OC)c1 [6-Gingerol] | inhibited by four Chinese medicine monomers (Oleuropein, 6-Gingerol, Corylifolinin and Acteoside) |
